Reference: ChEMBL document CHEMBL1201862, “PubChem BioAssay data set” (2004)
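How tested: cells in 96-well plates exposed to compound for 48 hours at five concentrations. Here, GI50 denotes the concentration required for 50% inhibition of growth.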 Active and inactive are the calls of the source. Cut-off read from the data, not from the text of the source: active = GI50 up to about 1.1 µM and inactive = higher.

What was measured:
Assay in all cases: NCI tumour cell line growth inhibition, 48 h
DU-145 = tested on: DU-145
OVCAR-8 = tested on: OVCAR-8
HOP-92 = tested on: HOP-92
SNB-19 = tested on: SNB-19
OVCAR-3 = tested on: OVCAR-3
SW-620 = tested on: SW-620
MCF7 = tested on: MCF7
SK-OV-3 = tested on: SK-OV-3
ACHN = tested on: ACHN
CCRF-CEM = tested on: CCRF-CEM
SK-MEL-2 = tested on: SK-MEL-2
NCI/ADR-RES = tested on: NCI/ADR-RES
K562 = tested on: K562
TK-10 = tested on: TK-10
M14 = tested on: M14
HT-29 = tested on: HT-29
SR = tested on: SR
SK-MEL-5 = tested on: SK-MEL-5
DMS-273 = tested on: DMS-273

CN1CCN(c2ccc([N+](=O)[O-])c3no[n+]([O-])c23)CC1
GI50 (DU-145): 0.141 µM (active)
GI50 (OVCAR-8): 0.24 µM (active)
GI50 (HOP-92): 0.526 µM (active)
GI50 (SNB-19): 0.914 µM (active)
GI50 (OVCAR-3): 0.396 µM (active)
GI50 (SW-620): 0.0631 µM (active)
GI50 (MCF7): 0.0817 µM (active)
GI50 (SK-OV-3): 0.148 µM (active)
GI50 (ACHN): 0.0395 µM (active)
GI50 (CCRF-CEM): 0.0143 µM (active)
GI50 (SK-MEL-2): 1.34 µM (inactive)
GI50 (NCI/ADR-RES): 0.161 µM (active)
GI50 (K562): 0.0881 µM (active)
GI50 (TK-10): 0.792 µM (active)
GI50 (M14): 0.153 µM (active)
GI50 (HT-29): 0.18 µM (active)
GI50 (SR): < 0.01 µM (active)
GI50 (SK-MEL-5): 0.743 µM (active)

O=C(O)Cc1cccnc1
GI50 (DU-145): > 100 µM (inactive)
GI50 (OVCAR-8): > 100 µM (inactive)
GI50 (HOP-92): > 100 µM (inactive)
GI50 (SNB-19): > 100 µM (inactive)
GI50 (OVCAR-3): > 100 µM (inactive)
GI50 (SW-620): > 100 µM (inactive)
GI50 (MCF7): > 100 µM (inactive)
GI50 (SK-OV-3): > 100 µM (inactive)
GI50 (ACHN): > 100 µM (inactive)
GI50 (CCRF-CEM): > 100 µM (inactive)
GI50 (SK-MEL-2): > 100 µM (inactive)
GI50 (NCI/ADR-RES): > 100 µM (inactive)
GI50 (K562): > 100 µM (inactive)
GI50 (TK-10): > 100 µM (inactive)
GI50 (M14): > 100 µM (inactive)
GI50 (HT-29): > 100 µM (inactive)
GI50 (SR): > 100 µM (inactive)
GI50 (SK-MEL-5): > 100 µM (inactive)

CC1(OCc2ccccc2)C(=O)N2C1NCC2(C)C (stereo not drawn)
GI50 (OVCAR-8): > 100 µM (inactive)
GI50 (SNB-19): > 100 µM (inactive)
GI50 (OVCAR-3): > 100 µM (inactive)
GI50 (SW-620): > 100 µM (inactive)
GI50 (DMS-273): > 100 µM (inactive)
GI50 (ACHN): > 100 µM (inactive)
GI50 (CCRF-CEM): > 100 µM (inactive)
GI50 (SK-MEL-2): > 100 µM (inactive)
GI50 (K562): > 100 µM (inactive)
GI50 (TK-10): > 100 µM (inactive)
GI50 (M14): > 100 µM (inactive)
GI50 (HT-29): > 100 µM (inactive)
GI50 (SR): > 100 µM (inactive)
GI50 (SK-MEL-5): > 100 µM (inactive)

N#CCCN(CCC#N)c1ccc(C(/N=N/c2ccccc2)=N\c2ccccc2)cc1
GI50 (DU-145): > 100 µM (inactive)
GI50 (OVCAR-8): > 100 µM (inactive)
GI50 (HOP-92): > 100 µM (inactive)
GI50 (SNB-19): > 100 µM (inactive)
GI50 (OVCAR-3): > 100 µM (inactive)
GI50 (SW-620): > 100 µM (inactive)
GI50 (MCF7): > 100 µM (inactive)
GI50 (SK-OV-3): > 100 µM (inactive)
GI50 (ACHN): > 100 µM (inactive)
GI50 (CCRF-CEM): > 100 µM (inactive)
GI50 (SK-MEL-2): > 100 µM (inactive)
GI50 (NCI/ADR-RES): > 100 µM (inactive)
GI50 (K562): > 100 µM (inactive)
GI50 (TK-10): > 100 µM (inactive)
GI50 (M14): > 100 µM (inactive)
GI50 (HT-29): > 100 µM (inactive)
GI50 (SR): > 100 µM (inactive)
GI50 (SK-MEL-5): > 100 µM (inactive)

Cc1cc(N(CCC#N)CCC#N)ccc1/C=C\C(=O)Nc1ccccc1
GI50 (OVCAR-8): > 100 µM (inactive)
GI50 (HOP-92): > 100 µM (inactive)
GI50 (SNB-19): > 100 µM (inactive)
GI50 (OVCAR-3): > 100 µM (inactive)
GI50 (SW-620): > 100 µM (inactive)
GI50 (DMS-273): 59.2 µM (inactive)
GI50 (SK-OV-3): > 100 µM (inactive)
GI50 (ACHN): 4.43 µM (inactive)
GI50 (CCRF-CEM): > 100 µM (inactive)
GI50 (SK-MEL-2): > 100 µM (inactive)
GI50 (K562): 1.37 µM (inactive)
GI50 (TK-10): > 100 µM (inactive)
GI50 (M14): 2.9 µM (inactive)
GI50 (HT-29): 5.92 µM (inactive)
GI50 (SK-MEL-5): > 100 µM (inactive)

O=C(CC(=O)C(=O)Nc1ccccc1)CC(c1ccccc1)c1c(O)c2ccccc2oc1=O (stereo not drawn)
GI50 (HOP-92): 23.4 µM (inactive)
GI50 (SNB-19): > 100 µM (inactive)
GI50 (OVCAR-3): > 100 µM (inactive)
GI50 (SW-620): > 100 µM (inactive)
GI50 (DMS-273): > 100 µM (inactive)
GI50 (SK-OV-3): > 100 µM (inactive)
GI50 (ACHN): > 100 µM (inactive)
GI50 (CCRF-CEM): > 100 µM (inactive)
GI50 (SK-MEL-2): > 100 µM (inactive)
GI50 (K562): > 100 µM (inactive)
GI50 (TK-10): > 100 µM (inactive)
GI50 (M14): > 100 µM (inactive)
GI50 (HT-29): > 100 µM (inactive)
GI50 (SK-MEL-5): > 100 µM (inactive)

COc1ccc2[nH]c3c(C)c4ncccc4c(C)c3c2c1
GI50 (DU-145): 7.55 µM (inactive)
GI50 (OVCAR-8): 3.73 µM (inactive)
GI50 (HOP-92): 8.34 µM (inactive)
GI50 (SNB-19): > 10 µM (inactive)
GI50 (OVCAR-3): 2.71 µM (inactive)
GI50 (SW-620): 1.98 µM (inactive)
GI50 (MCF7): 2.02 µM (inactive)
GI50 (SK-OV-3): > 10 µM (inactive)
GI50 (ACHN): 5.2 µM (inactive)
GI50 (CCRF-CEM): 3.85 µM (inactive)
GI50 (SK-MEL-2): > 10 µM (inactive)
GI50 (NCI/ADR-RES): 3.12 µM (inactive)
GI50 (K562): 3.68 µM (inactive)
GI50 (TK-10): > 10 µM (inactive)
GI50 (M14): 1.64 µM (inactive)
GI50 (HT-29): 2.22 µM (inactive)
GI50 (SR): 5.22 µM (inactive)
GI50 (SK-MEL-5): > 10 µM (inactive)

Cc1nc2c(nc1C)-c1c(c3c(n1C)C(=O)CCC3)C(=O)C2=O
GI50 (DU-145): 0.592 µM (active)
GI50 (OVCAR-8): 0.236 µM (active)
GI50 (HOP-92): 1.29 µM (inactive)
GI50 (SNB-19): 0.873 µM (active)
GI50 (OVCAR-3): 0.156 µM (active)
GI50 (SW-620): 0.214 µM (active)
GI50 (MCF7): 0.163 µM (active)
GI50 (SK-OV-3): 1.27 µM (inactive)
GI50 (ACHN): 0.476 µM (active)
GI50 (CCRF-CEM): 0.219 µM (active)
GI50 (SK-MEL-2): 0.571 µM (active)
GI50 (NCI/ADR-RES): 0.547 µM (active)
GI50 (K562): 0.338 µM (active)
GI50 (TK-10): 2.22 µM (inactive)
GI50 (M14): 0.338 µM (active)
GI50 (HT-29): 1.98 µM (inactive)
GI50 (SR): 0.175 µM (active)
GI50 (SK-MEL-5): 0.406 µM (active)
